Patent publication US20250290034A1, “METHOD FOR PRODUCING NAÏVE PLURIPOTENT STEM CELLS” (KYOTO UNIVERSITY, priority 2022, published 2025)

What was measured:
[1] = system: H9EOS cells; assay: Chemical resetting of primed H9EOS cells to naive state; EGFP-positive cells quantified on Day 14 by flow cytometry; type: cell-based, human; conditions: for BMP activation judged from resetting efficiency standardized to Chemical only: 1, 5 or 10 μM added to VPA-containing cRM-1 on Days 3-5 (FIG. 10, 11); for resetting efficiency with respect to chemical: VPA-free cRM-1, miR-98-5p transfected Day 1 combined with BMP2 or BMP4 added Day 2 (FIG. 12)
Protocol: After collecting H9EOS and H9EOS (NK) cells and measuring the cell count in the same manner as for subculturing, they were diluted with AK02N medium containing Y-27632 (Nacalai Tesque, 08945-84) and iMatrix-511 silk (Nippi, 387-10131) (culture medium for primed pluripotent stem cells) and seeded on a multiwell plate (modified method of G. Guo, et. al., 144, 2748-2763 (2017)). The medium was exchanged with AK02N on Day 1, with culturing in cRM-1 (NDiff 227 (Takara, Y40002) containing 1 μM PD0325901, 10 ng/ml hLIF, 1 mM VPA) or VPA-free cRM-1 (culture medium for naive pluripotent stem cells) from Day 2 to Day 5, followed by culturing up to Day 14 in cRM-2 (NDiff 227 containing 1 μM PD0325901, 10 ng/ml hLIF, 2 μM Go6983, 2 μM XAV939). The resetting efficiency was quantified by counting the cell count using a flow cytometer, with the EGFP-expressing cells as naive cells.
The mimic used for each miRNA was mirVana miRNA Mimic (Thermo Fisher Scientific). A control, mirVana miRNA Mimic, Negative Control (Thermo Fisher Scientific, 4464058) was also used. Introduction was carried out on either Day 1, 2, 3 or 4, or a combination thereof, during the normal course of resetting, using Lipofectamine RNAiMAX Transfection Reagent (Thermo Fisher Scientific, 13778075) as the miRNA mimic. Culturing was then carried out according to common resetting protocol, and the EGFP-positive cells were quantified on Day 14 using a flow cytometer.
On Day 1 of the resetting protocol shown in FIG. 2, the 22 plasmids were used, either alone or as a mixture of the 22 plasmids minus one each, for transfection together with the transposase-expressing plasmid (pCAG-PBase), using Lipofectamine Stem Transfection Reagent (Thermo Fisher Scientific, STEM00003). Doxycycline was added at a final concentration of 250 ng/ml to cRM-1 on Days 2 to 5 to induce gene expression. Culturing was then carried out according to common resetting protocol, and the EGFP-positive cells were quantified on Day 14 using a flow cytometer.
[…] 2. Culturing was then carried out according to common resetting protocol, and the EGFP-positive cells were quantified on Day 14 using a flow cytometer.
To cRM-1 containing or not containing VPA there was added 10-100 ng/mL of rhBMP4 (Reprocell, 314-BP-010), on one or more of Days 1 to 5 of the resetting protocol of FIG. 2. Culturing was then carried out according to common resetting protocol, and the EGFP-positive cells were quantified on Day 14 using a flow cytometer.
On Day 1 of the resetting protocol of FIG. 2, one siRNA from among NR6A1, TRIM71, LRIG1, DNMT3B, IGF2BP1, CACHD1, PCDH8, L1TD1, SFRP1, VASH2, LIN28B, USP44, MAPK10, DICER1, DPH3, PRTG, MAPK6, HMGA2, LINC01356 (n491112) and LINC01356 (n549768) (all purchased from Horizon Discovery/Dharmacon) was introduced using Lipofectamine RNAiMAX Transfection Reagent (Thermo Fisher Scientific, 13778075). Culturing was then carried out according to common resetting protocol, and the EGFP-positive cells were quantified on Day 14 using a flow cytometer.

[2] = system: AdiPS iPS cells and H1, H9EOS and H9 ES cells; assay: Resetting efficiency by SUSD2 staining and flow cytometry; type: cell-based, human; conditions: all cell lines; miR-98-5p mimic Day 1 or BMP4 Day 2; VPA-containing cRM-1; Day 14 (FIG. 16)
Protocol: AccuMax was added to the cells on Day 14 of the resetting protocol of FIG. 2, and the mixture was incubated at 37° C. for about 10 to 15 minutes, after which the cells were detached. They were then suspended in 1% BSA-PBS to prevent nonspecific antibody binding, and after 30 minutes of blocking on ice, SUSD2 antibody was mixed with the cell suspension to a final concentration of 1:500, reaction was conducted for 30 minutes on ice and the mixture was rinsed with PBS, after which measurement was performed with a flow cytometer.
FIG. 16 is a graph showing resetting efficiency in culturing with VPA-containing cRM-1, using AdiPS iPS cells and H1, H9EOS and H9 ES cells. With mimic_ctrl and mimic-98-5p, cells were transfected with control mimic or miR-98-5p mimic on Day 1, culturing was carried out in VPA-containing cRM-1 from Day 2 to Day 4, and culturing was in cRM-2 from Day 5 to Day 14. For BMP-4, the BMP4 was added to VPA-containing cRM-1 on Day 2 without transfection of cells with control mimic or miR-98-5p mimic, for culturing up to Day 4, and then culturing was in cRM-2 from Day 5 to Day 14. […]

Molecule	BMP activation judged from resetting efficiency standardized to Chemical only ([1]; H9EOS)	percentage of SUSD2-positive cells [2]	resetting efficiency with respect to chemical ([1]; H9EOS)	also measured
O=C(/C=C/c1ccc(O)cc1)c1ccc(O)cc1O [isoliquiritigenin]	capable of activating BMP			
Brc1ccc(CSc2nc3ccccc3o2)cc1 [SB-4]	capable of activating BMP			
BMP4: recombinant human bone morphogenetic protein BMP4 (Reprocell, 314-BP-010)		tended to increase	increase	resetting efficiency (GFP-positive cells) ([1]; H9EOS transfected with miR-98-5p Day 1, BMP4 added earlier (Day 0/1) with Wnt inhibitor (IWP mix, 1 μM) simultaneously or before, VPA-containing cRM-1 (FIG. 17)): maintaining the resetting efficiency; resetting efficiency compared to chemical ([1]; H9EOS, BMP added to medium on Day 2, VPA-containing cRM-1 (FIG. 12)): highly significant increase; resetting efficiency ([1]; H9EOS, rhBMP4 added on Day 0 (FIG. 12, 13)): lower
miR-98-5p: let-7 family miRNA mimic (mirVana), sequence UGAGGUAGUAAGUUGUAUUGUU, SEQ ID 1 (listed as RNA, chemistry not given here; listed as Homo sapiens)		tended to increase	increase	resetting efficiency ([1]; H9EOS, miR-98-5p transfected Day 1 in addition to BMP2 or BMP4 on Day 2, VPA-containing cRM-1 (FIG. 12)): tended to further increase; resetting efficiency (EGFP-positive cells) ([1]; H9EOS, miRNA mimic transfected on Day 1, cRM-1 containing VPA, Day 14 (FIG. 3, FIG. 4)): significantly high
